Assays:
Experiment in all cases: relative viability (nuclei count vs DMSO), 5 days (fraction); higher = more cells survive
Entinostat + Olaparib = compound: Nc1ccccc1NC(=O)c1ccc(CNC(=O)OCc2cccnc2)cc1 [Entinostat] + O=C(c1cc(Cc2n[nH]c(=O)c3ccccc23)ccc1F)N1CCN(C(=O)C2CC2)CC1 [Olaparib] (partner 8 µM)
Method in brief: (§1)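 Nuclei were stained with Hoechst during a one-step fixation (final 0.05% Triton X-100, 1% formaldehyde, 1 ug/ml Hoechst) carried out 5 days after dosing, then counted on 4× images. The cells, lung cancer lines in 1536-well plates, had been dosed by pin tool the day after seeding with one drug alone or a fixed anchor-drug dose plus five library-drug doses (not always all listed) in √10 steps. Relative viability is the nuclei count in treated wells divided by that in vehicle wells, and each value is the median of duplicate plates.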

Entinostat + Tozasertib = compound: Nc1ccccc1NC(=O)c1ccc(CNC(=O)OCc2cccnc2)cc1 [Entinostat] + Cc1cc(Nc2cc(N3CCN(C)CC3)nc(Sc3ccc(NC(=O)C4CC4)cc3)n2)n[nH]1 [Tozasertib] (partner 0.1 µM)
Method in brief: as §1

[1] = compound: C1COCCN1C2=NC(=NC3=C2OC4=C3C=CC=N4)C5=CC(=CC=C5)NC(=O)C6=CN=C(C=C6)N + Nc1nc2[nH]cc(CCc3ccc(C(=O)N[C@@H](CCC(=O)O)C(=O)O)cc3)c2c(=O)[nH]1 [Pemetrexed] (partner 0.2 µM)
Method in brief: as §1

[2] = compound: C1COCCN1C2=NC(=NC3=C2OC4=C3C=CC=N4)C5=CC(=CC=C5)NC(=O)C6=CN=C(C=C6)N + O=C(CCCCCCC(=O)Nc1ccccc1)NO [Vorinostat] (partner 1 µM)
Method in brief: as §1

Cell Line	relative viability (Entinostat + Olaparib; first compound 0.02 µM)	relative viability (Entinostat + Olaparib; first compound 0.06325 µM)	relative viability (Entinostat + Olaparib; first compound 0.2 µM)	relative viability (Entinostat + Olaparib; first compound 0.6325 µM)	relative viability (Entinostat + Olaparib; first compound 2 µM)	relative viability (Entinostat + Tozasertib; first compound 0.02 µM)	relative viability (Entinostat + Tozasertib; first compound 0.06325 µM)	relative viability (Entinostat + Tozasertib; first compound 0.2 µM)	relative viability (Entinostat + Tozasertib; first compound 0.6325 µM)	relative viability (Entinostat + Tozasertib; first compound 2 µM)	relative viability ([1]; first compound 0.02 µM)	relative viability ([1]; first compound 0.06325 µM)	relative viability ([1]; first compound 0.2 µM)	relative viability ([1]; first compound 0.6325 µM)	relative viability ([1]; first compound 2 µM)	relative viability ([2]; first compound 0.02 µM)	relative viability ([2]; first compound 0.06325 µM)	relative viability ([2]; first compound 0.2 µM)	relative viability ([2]; first compound 0.6325 µM)	relative viability ([2]; first compound 2 µM)
NCI-H2342	0.401	0.477	0.447	0.356	0.308	0.465	0.429	0.377	0.372	0.333	0.839	0.739	0.753	0.796	0.713	0.821	0.876	0.849	0.756	0.627
NCI-H358	0.574	0.649	0.593	0.342	0.172	0.0897	0.0965	0.0816	0.0915	0.0853	0.176	0.182	0.137	0.222	0.135	0.727	0.723	0.688	0.644	0.332
NCI-H1755	0.877	0.816	0.598	0.458	0.377	0.603	0.505	0.464	0.361	0.357	0.447	0.431	0.465	0.388	0.362	0.7	0.868	0.698	0.635	0.562
A-427	0.721	0.717	0.678	0.554	0.553	0.213	0.225	0.203	0.182	0.159	1	0.985	0.944	0.914	0.739	0.831	0.904	0.855	0.838	0.798
SK-LU-1	0.469	0.497	0.394	0.313	0.288	0.335	0.337	0.278	0.182	0.169	1.07	0.953	1.06	0.917	0.465	0.741	0.742	0.736	0.647	0.482
ABC-1	0.508	1.11	0.758	0.993	1.07	0.175	0.237	0.189	0.2	0.193	–	–	–	–	–	1.1	0.976	0.81	1.22	0.789
NCI-H1792	0.488	0.358	0.483	0.133	0.0504	–	–	–	–	–	1.02	0.924	0.586	0.638	0.276	–	–	–	–	–
NCI-H1563	–	–	–	–	–	–	–	–	–	–	0.795	0.699	0.767	0.694	0.685	–	–	–	–	–
IA-LM	0.807	0.845	0.871	0.693	0.536	–	–	–	–	–	–	–	–	–	–	0.855	1.03	1.08	0.44	0.401
EBC-1	0.68	0.732	0.696	0.203	0.174	–	–	–	–	–	–	–	–	–	–	–	–	–	–	–
NCI-H727	0.73	0.735	0.642	0.677	0.532	0.605	0.647	0.497	0.392	0.403	–	–	–	–	–	1.14	1.22	1.05	1.22	1.12
